This passage reports Hit score results from ChEMBL document CHEMBL4303122, “Identification of potential treatments for COVID-19 through artificial intelligence-enabled phenomic analysis of human cells infected with SARS-CoV-2” (2020).

Several values for one entry are separate records, joined by “and”; a condition that tells them apart may be missing. Identical values can stand only once. Counter-ions that a name gives are not always drawn.

In the first assay the test system is SARS-CoV-2. The assay is described as follows: Antiviral activity against SARS-CoV-2 (USA-WA1/2020 strain) measured by imaging in Vero cells at MOI 0.08 after 48 hrs (reported as hit score from 0-1 for on-disease vs off-disease activity: scores >0.6 considered hits). It is filed as functional, Chlorocebus sabaeus.
Conditions: not given
In the case of `OC[C@H]1NC[C@H](O)[C@@H](O)[C@H]1O`, the Hit score turned out to be 0.1704. Same read-out and setting: the same measure for `CC(C)CN(C[C@@H](O)[C@H](Cc1ccccc1)NC(=O)O[C@H]1CO[C@H]2OCC[C@H]21)S(=O)(=O)c1ccc(N)cc1`: 0.153; for `NC(=O)c1nc(F)cnc1O`: 0.1243. Same read-out and setting: in the case of `N[C@@H](CCN[C@@H](CCN1CC[C@H]1C(=O)O)C(=O)O)C(=O)O` it was 0.1086; in that of `CCC(CC)COC(=O)[C@H](C)N[P@](=O)(OC[C@H]1O[C@@](C#N)(c2ccc3c(N)ncnn23)[C@H](O)[C@@H]1O)Oc1ccccc1`, 0.5934. On the same count and under the same terms, in the case of `O=S(=O)(c1cccc2c(Cl)cccc12)N1CCCNCC1` it was 0.1073.

Compound `CC(C)(C)NC(=O)[C@@H]1CN(Cc2cccnc2)CCN1C[C@@H](O)C[C@@H](Cc1ccccc1)C(=O)N[C@H]1c2ccccc2C[C@H]1O.O` had a Hit score of 0.2525. On the same count and under the same terms, the same measure for `CCOC(=O)[C@H]1O[C@@H]1C(=O)N[C@@H](CC(C)C)C(=O)NCCC(C)C` [ALOXISTATIN]: 0.4403. The compound `CN(C)C(=O)COC(=O)Cc1ccc(OC(=O)c2ccc(NC(=N)N)cc2)cc1` [CAMOSTAT] displayed a Hit score of 0.2137. The same measure, in the same setting: the same measure for `CCN(CC)CCCC(C)Nc1ccnc2cc(Cl)ccc12` (configuration not stated) [CHLOROQUINE]: 0.6704; for `CC(C)c1nc(CN(C)C(=O)N[C@@H](CCN2CCOCC2)C(=O)N[C@H](CC[C@H](Cc2ccccc2)NC(=O)OCc2cncs2)Cc2ccccc2)cs1` [COBICISTAT]: 0.2397; for `COC(=O)/C=C/C(=O)OC` [DIMETHYL FUMARATE]: 0.1078.

The compound `N#C[C@@]1(c2ccc3c(N)ncnn23)O[C@H](CO)[C@@H](O)[C@H]1O` [GS-441524] yielded a Hit score of 1. As for `O=C(CCCN1CCC(O)(c2ccc(Cl)cc2)CC1)c1ccc(F)cc1` [HALOPERIDOL], the Hit score was 0.07542.

Compound `CCN(CCO)CCCC(C)Nc1ccnc2cc(Cl)ccc12.O=S(=O)(O)O` (configuration not stated) [HYDROXYCHLOROQUINE SULFATE] displayed a Hit score of 0.5553.

`CC[C@H](Nc1ncnc2[nH]cnc12)c1nc2cccc(F)c2c(=O)n1-c1ccccc1` [IDELALISIB]: the Hit score was -0.08519. On the same count and under the same terms, the same measure for `CC(C)Cn1cnc2c(N)nc3ccccc3c21` [IMIQUIMOD]: 0.3174; for `COc1ccc2c(c1)c(CC(=O)O)c(C)n2C(=O)c1ccc(Cl)cc1` [INDOMETHACIN]: 0.1024; for `Cc1cccc(C)c1OCC(=O)N[C@@H](Cc1ccccc1)[C@@H](O)C[C@H](Cc1ccccc1)NC(=O)[C@H](C(C)C)N1CCCNC1=O` [LOPINAVIR]: 0.1843. Still for that read-out and setting: in the case of `C[C@H]1C[C@@H]2[C@H]([C@@H](O)C[C@@]3(C)[C@H]2CC[C@]3(O)C(=O)COC(=O)CCC(=O)[O-])[C@@]2(C)C=CC(=O)C=C12.[Na+]` [METHYLPREDNISOLONE SODIUM SUCCINATE] it was 0.2294; in that of `CCC(CC)O[C@@H]1C=C(C(=O)O)C[C@H](N)[C@H]1NC(C)=O` [OSELTAMIVIR CARBOXYLATE], 0.1922; in that of `C1=N/C2=N/c3ccc(OCCN4CCCC4)c(c3)COC/C=C/COCc3cccc(c3)C(=C1)N2` [PACRITINIB], 0.2418. `Nc1nc(O)c2ncn(CCC(CO)CO)c2n1` [PENCICLOVIR] yielded a Hit score of 0.1283. The same measure, in the same setting: in the case of `OC[C@H]1O[C@@H](Oc2cc(O)cc(/C=C/c3ccc(O)cc3)c2)[C@H](O)[C@@H](O)[C@@H]1O` [PICEID] it was 0.06165; in that of `C=C[C@H]1CN2CC[C@H]1C[C@H]2[C@H](OC(=O)OCC)c1ccnc2ccc(OC)cc12` [QUININE ETHYLCARBONATE], 0.1489; in that of `C=C[C@H]1CN2CC[C@H]1C[C@H]2[C@H](O)c1ccnc2ccc(OC)cc12` [QUININE], 0.2113. With `NC(=O)c1ncn([C@@H]2O[C@H](CO)[C@@H](O)[C@H]2O)n1` [RIBAVIRIN], the Hit score amounted to 0.1047. The same measure, in the same setting: the same measure for `CC(C)c1nc(CN(C)C(=O)N[C@H](C(=O)N[C@@H](Cc2ccccc2)C[C@H](O)[C@H](Cc2ccccc2)NC(=O)OCc2cncs2)C(C)C)cs1` [RITONAVIR]: 0.1477. The same measure, in the same setting: the same measure for `CC[C@H]1OC(=O)[C@@](C)(F)C(=O)[C@H](C)[C@@H](O[C@@H]2O[C@H](C)C[C@H](N(C)C)[C@H]2O)[C@](C)(OC)C[C@@H](C)C(=O)[C@H](C)[C@H]2N(CCCCn3cc(-c4cccc(N)c4)nn3)C(=O)O[C@]12C` [SOLITHROMYCIN]: 0.6032; for `CC(C)OC(=O)OCOP(=O)(CO[C@H](C)Cn1cnc2c(N)ncnc21)OCOC(=O)OC(C)C.O=C(O)/C=C/C(=O)O` [TENOFOVIR DISOPROXIL FUMARATE]: 0.1962; for `CC1=CC(=O)C(C(C)C)=CC1=O` [THYMOQUINONE]: 0.2773. The same measure, in the same setting: the same measure for `CCOC(=O)c1c(CSc2ccccc2)n(C)c2cc(Br)c(O)c(CN(C)C)c12` [UMIFENOVIR]: 0.1334.

Another assay concerns SARS-CoV-2. The assay is described as follows: Antiviral activity against SARS-CoV-2 (USA-WA1/2020 strain) measured by imaging in HRCE cells at MOI 0.4 after 96 hrs (reported as hit score from 0-1 for on-disease vs off-disease activity: scores >0.6 considered hits). In kind it is functional. Particulars: Homo sapiens.
For the compound Eplivanserin hemifumarate, the Hit score is -0.0126. Consider FLUPENTIXOL, for which the Hit score was 0.12. On to GADODIAMIDE, for which the Hit score is 0.193.

MONOCTANOIN came in with a Hit score of -0.0148.

On to OXALIPLATIN, for which the Hit score amounted to 0.0878. The same measure, in the same setting: in the case of SPIRAMYCIN it was 0.139 and 0.136; in that of THIMEROSAL, -0.0445; in that of hemomex-s, 0.064. On the same count and under the same terms, in the case of perchlozone it was 0.0874; in that of stetaderm, 0.101.
